These results are taken from patent US9403801B2 (Calitor Sciences, LLC, priority 2014, dated 2016).

Series [1] in a line: Compound stability in rat liver microsomes. In kind it is in vitro ADME. Particulars: for half-life at 5 μM: compound 5 μM, NADPH 1.0 mM, 37° C.; for CLint scaled at 5 μM: in vivo CLint extrapolated. In a few lines: (§1)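 After a 3-min preincubation, reactions of 5 μM compound with NADPH (1.0 mM) were started by adding microsomal protein to 0.5 mg/mL and run at 37° C in pH 7.4 phosphate buffer. Aliquots were stopped with ice-cold acetonitrile at up to 60 min. Parent levels were then measured by LC/MS/MS.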

A short description of series [2]: Pharmacokinetics after intravenous and oral administration in rats. Conditions: for Clearance (CL) after iv dosing / AUC(0-t) / half-life / Vd: dose 1 mg/kg (Ex. 27: 0.72 mg/kg), iv dosing; for F: oral bioavailability; for AUC(0-t) / half-life / Vd: rat, plasma; for Vd: read-out: Vss. In kind it is in vivo. The essentials: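 Rats were dosed 1 or 2 mg/kg IV or 5 or 10 mg/kg orally, as water solution, HPMC/Tween 80, DMSO/saline, MC suspension or capsule. Plasma was sampled from 0.083 or 0.25 h up to 24 h and quantified by LC/MS/MS in MRM mode with ESI.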

The target in another series is JAK1 (h) (Homo sapiens (Human), UniProt P23458). As to the kind of experiment: JAK1 kinase assay (33P-ATP filter binding, Millipore). Type of series: biochemical. In a few lines:
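Radiometric assay of γ-33P-ATP incorporation into plate-immobilised MBP; kinase buffer pH 7.6 with 10 mM MgCl2, 10 μM unlabelled ATP typical, enzyme 10 or 20 nM final, 1% DMSO. Reactions ran 1 h at room temperature before scintillation counting. IC50 from 10-point half-log dilution curve, duplicates.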

Another series concerns the target JAK2 (h) (Homo sapiens (Human), UniProt O60674). As to the kind of experiment: JAK2 kinase assay (33P-ATP filter binding, Millipore). Type of series: biochemical. The method, then: Kinase assays can be performed by measurement of incorporation of γ-^33P ATP into immobilized myelin basic protein (MBP). High binding white 384 well plates (Greiner) are coated with MBP (Sigma #M−1891) by incubation of 60 μL/well of 20 μg/mL MBP in Tris-buffered saline (TBS; 50 mM Tris pH 8.0, 138 mM NaCl, 2.7 mM KCl) for 24 h at 4° C. Plates are washed 3× with 100 μL TBS. Kinase reactions are carried out in a total volume of 34 μL in kinase buffer (5 mM Hepes pH 7.6, 15 mM NaCl, 0.01% bovine gamma globulin (Sigma #I-5506), 10 mM MgCl2, 1 mM DTT, 0.02% TritonX-100). Compound dilutions are performed in DMSO and added to assay wells to a final DMSO concentration of 1%. Each data point is measured in duplicate, and at least two duplicate assays are performed for each individual compound determination. Enzyme is added to final concentrations of 10 nM or 20 nM, for example. A mixture of unlabeled ATP and γ-^33P ATP is added to start the reaction (2×10^6 cpm of γ-^33P ATP per well (3000 Ci/mmole) and 10 μM unlabeled ATP, typically. The reactions are carried out for 1 h at room temperature with shaking. Plates are washed 7× with TBS, followed by the addition of 50 μL/well scintillation fluid (Wallac). Plates are read using a Wallac Trilux counter. This is only one format of such assays; various other formats are possible, as known to one skilled in the art.
The above assay procedure can be used to determine the IC50 for inhibition and/or the inhibition constant, Ki. The IC50 is defined as the concentration of compound required to reduce the enzyme activity by 50% under the condition of the assay. The IC50 value is estimated by preparing a 10 point curve using a 1/2 log dilution series (for example, a typical curve may be prepared using the following compound concentrations: 3 μM, 1 μM, 0.3 μM, 0.1 μM, 0.03 μM, 0.01 μM, 0.003 μM, 0.001 μM, 0.0003 μM and 0 μM).
The kinase assays described herein were performed at Millipore UK Ltd, Dundee Technology Park, Dundee DD2 1SW, UK.

Series [3] is described as follows: Compound stability in human liver microsomes. In kind it is in vitro ADME. Conditions: for half-life at 5 μM: compound 5 μM, NADPH 1.0 mM, 37° C.; for CLint scaled at 5 μM: in vivo CLint extrapolated. The essentials: as §1
Setting [4] is: pH 7.4, Rat liver microsomes 0.5 mg protein/mL.
Where [5] appears, read: pH 7.4, Human liver microsomes 0.5 mg protein/mL.
Where [6] appears, read: rat, liver microsomes, pH 7.4, Rat liver microsomes 0.5 mg protein/mL.
[7] abbreviates: rat, liver microsomes, pH 7.4, Rat liver microsomes.
Setting [8] is: human, liver microsomes, pH 7.4, Human liver microsomes 0.5 mg protein/mL.
Where [9] appears, read: human, liver microsomes, pH 7.4, Human liver microsomes.

JAK2 (h), sequence (O60674 whole entry): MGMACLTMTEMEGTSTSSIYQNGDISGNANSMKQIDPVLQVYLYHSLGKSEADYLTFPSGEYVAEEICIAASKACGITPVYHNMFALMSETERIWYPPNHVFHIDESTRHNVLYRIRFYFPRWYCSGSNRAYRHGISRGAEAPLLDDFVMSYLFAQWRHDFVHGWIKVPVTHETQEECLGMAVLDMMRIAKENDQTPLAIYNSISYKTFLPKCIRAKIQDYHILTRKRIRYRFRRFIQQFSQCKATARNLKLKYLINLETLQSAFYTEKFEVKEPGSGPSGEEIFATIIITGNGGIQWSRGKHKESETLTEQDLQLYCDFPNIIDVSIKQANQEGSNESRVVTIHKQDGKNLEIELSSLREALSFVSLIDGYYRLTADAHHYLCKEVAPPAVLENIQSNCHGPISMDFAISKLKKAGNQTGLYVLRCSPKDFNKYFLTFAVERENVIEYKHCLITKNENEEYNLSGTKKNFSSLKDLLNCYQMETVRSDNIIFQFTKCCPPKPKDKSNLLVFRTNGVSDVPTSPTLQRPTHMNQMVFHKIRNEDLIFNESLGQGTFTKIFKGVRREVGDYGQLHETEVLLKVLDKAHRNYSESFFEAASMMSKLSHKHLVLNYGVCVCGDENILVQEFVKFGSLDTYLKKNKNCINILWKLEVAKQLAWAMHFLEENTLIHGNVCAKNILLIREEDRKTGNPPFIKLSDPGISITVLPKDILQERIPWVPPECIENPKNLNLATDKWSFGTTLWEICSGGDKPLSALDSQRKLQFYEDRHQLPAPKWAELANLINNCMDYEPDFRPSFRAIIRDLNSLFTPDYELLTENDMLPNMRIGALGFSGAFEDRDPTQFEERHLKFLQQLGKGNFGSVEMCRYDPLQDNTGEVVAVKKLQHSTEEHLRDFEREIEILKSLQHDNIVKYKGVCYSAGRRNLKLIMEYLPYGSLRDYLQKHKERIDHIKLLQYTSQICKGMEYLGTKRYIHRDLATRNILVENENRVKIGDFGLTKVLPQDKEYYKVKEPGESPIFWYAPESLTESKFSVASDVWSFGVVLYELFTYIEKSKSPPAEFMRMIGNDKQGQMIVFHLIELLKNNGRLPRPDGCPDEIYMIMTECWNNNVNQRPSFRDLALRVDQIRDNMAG
JAK1 (h), sequence (P23458 whole entry): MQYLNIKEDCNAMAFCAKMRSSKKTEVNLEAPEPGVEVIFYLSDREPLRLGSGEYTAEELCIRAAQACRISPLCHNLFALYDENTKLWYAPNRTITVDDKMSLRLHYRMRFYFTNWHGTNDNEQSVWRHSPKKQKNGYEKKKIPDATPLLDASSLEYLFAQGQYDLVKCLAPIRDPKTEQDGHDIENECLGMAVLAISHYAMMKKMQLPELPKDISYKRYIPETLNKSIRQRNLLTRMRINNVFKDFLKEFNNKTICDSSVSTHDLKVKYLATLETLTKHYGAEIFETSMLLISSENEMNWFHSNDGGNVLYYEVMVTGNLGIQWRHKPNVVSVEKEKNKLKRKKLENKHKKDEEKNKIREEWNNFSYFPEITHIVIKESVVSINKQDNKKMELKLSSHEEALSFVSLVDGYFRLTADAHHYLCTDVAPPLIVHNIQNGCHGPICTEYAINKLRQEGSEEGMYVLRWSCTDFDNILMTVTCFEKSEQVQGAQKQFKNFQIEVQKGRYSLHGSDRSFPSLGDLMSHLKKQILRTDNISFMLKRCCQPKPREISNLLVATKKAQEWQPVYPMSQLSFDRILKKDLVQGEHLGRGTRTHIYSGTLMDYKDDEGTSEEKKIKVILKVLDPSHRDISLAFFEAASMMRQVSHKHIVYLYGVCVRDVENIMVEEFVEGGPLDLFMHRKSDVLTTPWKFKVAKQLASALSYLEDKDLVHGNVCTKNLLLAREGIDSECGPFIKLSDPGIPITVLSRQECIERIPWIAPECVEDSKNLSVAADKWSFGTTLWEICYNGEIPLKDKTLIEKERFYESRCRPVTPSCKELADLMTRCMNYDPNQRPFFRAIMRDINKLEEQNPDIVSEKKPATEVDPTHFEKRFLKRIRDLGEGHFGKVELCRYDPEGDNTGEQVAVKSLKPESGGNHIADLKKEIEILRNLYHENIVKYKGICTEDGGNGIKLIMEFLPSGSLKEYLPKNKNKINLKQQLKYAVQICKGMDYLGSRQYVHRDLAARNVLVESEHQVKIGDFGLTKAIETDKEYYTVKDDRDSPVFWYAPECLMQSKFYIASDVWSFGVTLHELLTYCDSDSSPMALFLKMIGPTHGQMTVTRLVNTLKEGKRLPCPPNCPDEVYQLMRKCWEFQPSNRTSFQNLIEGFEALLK

As for `CC(=O)N1CC2CC(Nc3nc(Nc4cnn(C)c4)ncc3Cl)CC2C1` (centres unmarked) [Ex. 32, 1-(5-((5-chloro-2-((1-methyl-1H-pyrazol-4-yl)amino)pyrimidin-4-yl)amino)hexahydrocyclopenta[c]pyrrol-2(1H)-yl)ethanone], the half-life at 5 μM in series [1] (setting [4]) is 27.2 min. For the same compound, in series [1] (pH 7.4, Rat liver microsomes), the intrinsic metabolic clearance (CLint scaled) at 5 μM is 91.4 mL/min/kg. In series [2], the “Clearance (CL) after iv dosing” value came out at 62.8 mL/min/kg, the F came out at 41.3%, the AUC(0-t) turned out to be 264 ng·h/mL and the half-life was 35.4 min. The Vd in series [2] worked out at 1.65 L/kg. Besides, at JAK1 (h), the IC50 stood at 3 nM. This compound also displayed an IC50 on JAK2 (h) of 37 nM. Further, the half-life at 5 μM in series [3] (setting [5]) worked out at 202 min. Moreover, in series [3] (pH 7.4, Human liver microsomes), the CLint scaled at 5 μM is 8.6 mL/min/kg.
On to `Cn1cc(Nc2ncc(Cl)c(NC3CC4CN(C(=O)C(F)(F)F)CC4C3)n2)cn1` (centres unmarked) [Ex. 34, 1-(5-((5-chloro-2-((1-methyl-1H-pyrazol-4-yl)amino)pyrimidin-4-yl)amino)hexahydrocyclopenta[c]pyrrol-2(1H)-yl)-2,2,2-trifluoroethanone], for which the half-life at 5 μM in series [1] (setting [4]) was 2.31 min; in series [3] (setting [5]) it was 19 min. Also, the CLint scaled at 5 μM is 1080 mL/min/kg in series [1] (pH 7.4, Rat liver microsomes) and 91.6 mL/min/kg in series [3] (pH 7.4, Human liver microsomes). Moreover, the IC50 on JAK1 (h) is 2 nM; on JAK2 (h) it was 17 nM.
On to `Cn1cc(Nc2ncc(Cl)c(NC3CCC4CN(C(=O)CC#N)CC4C3)n2)cn1` (centres unmarked) [Ex. 22, 3-(5-((5-chloro-2-((1-methyl-1H-pyrazol-4-yl)amino)pyrimidin-4-yl)amino)hexahydro-1H-isoindol-2(3H)-yl)-3-oxopropanenitrile], for which the half-life at 5 μM in series [1] (setting [4]) was determined as 12.2 min. Moreover, in series [1] (pH 7.4, Rat liver microsomes), the intrinsic clearance (CLint scaled) at 5 μM is 204 mL/min/kg. In series [2], the “Clearance (CL) after iv dosing” value was found to be 94.8 mL/min/kg, the F is listed as 22.6%, the AUC(0-t) was 176 ng·h/mL and the half-life is 25.8 min. The Vd in series [2] came to 2.02 L/kg. This compound returned an IC50 at JAK1 (h) of 2 nM. This compound displayed an IC50 at JAK2 (h) of 6 nM. In series [3] (setting [5]), the half-life at 5 μM was 158 min. Besides, the CLint scaled at 5 μM in series [3] (pH 7.4, Human liver microsomes) was 11 mL/min/kg.
In series [1] (setting [6]), `Cn1cc(Nc2ncc(Cl)c(NC3CCC4(CC3)CCN(S(C)(=O)=O)CC4)n2)cn1` [Ex. 29, 5-chloro-N^2-(1-methyl-1H-pyrazol-4-yl)-N^4-(3-(methylsulfonyl)-3-azaspiro[5.5]undecan-9-yl)pyrimidine-2,4-diamine] registered a half-life at 5 μM of 40.3 min. Besides, the CLint scaled at 5 μM in series [1] (setting [7]) was 61.6 mL/min/kg. For the same compound, in series [2], the “Clearance (CL) after iv dosing” value stood at 45.7 mL/min/kg, the F was 19.1%, the AUC(0-t) was found to be 382 ng·h/mL and the half-life is 49.2 min. For the same compound, the Vd in series [2] came to 2.05 L/kg. This compound had a half-inhibitory concentration (IC50) on JAK1 (h) of 2 nM. Also, the IC50 at JAK2 (h) is 5 nM. Also, the half-life at 5 μM in series [3] (setting [8]) is 83.8 min. Moreover, the CLint scaled at 5 μM in series [3] (setting [9]) was 20.8 mL/min/kg.
With `Cn1cc(Nc2ncc(Cl)c(NC3CC4CN(CC(F)(F)F)CC4C3)n2)cn1` (centres unmarked) [Ex. 35, 5-chloro-N^2-(1-methyl-1H-pyrazol-4-yl)-N^4-(2-(2,2,2-trifluoroethyl)octahydrocyclopenta[c]pyrrol-5-yl)pyrimidine-2,4-diamine], the figures for the half-life at 5 μM in series [1] (setting [4]) and in series [3] (setting [5]) were 2.72 min and 6.65 min, respectively. The CLint scaled at 5 μM was 913 mL/min/kg in series [1] (pH 7.4, Rat liver microsomes) and 261 mL/min/kg in series [3] (pH 7.4, Human liver microsomes). Also, the IC50 on JAK1 (h) stood at 2 nM; on JAK2 (h), 8 nM.
On to `Cc1cnc(Nc2cnn(C)c2)nc1NC1CCC2(CC1)CCN(C(=O)CC#N)C2` (centres unmarked) [Ex. 10, 3-(8-((5-methyl-2-((1-methyl-1H-pyrazol-4-yl)amino)pyrimidin-4-yl)amino)-2-azaspiro[4.5]decan-2-yl)-3-oxopropanenitrile], for which the half-life at 5 μM in series [1] (setting [6]) is 52.6 min; in series [3] (setting [8]) it was 1510 min. Also, the results for the CLint scaled at 5 μM in series [1] (setting [7]) and in series [3] (setting [9]) were 47.2 mL/min/kg and 1.15 mL/min/kg, respectively. The IC50 came to 7 nM at JAK1 (h) and 129 nM on JAK2 (h).
With `Cn1cc(Nc2ncc(Cl)c(NC3CC4CN(c5ccc(C#N)cn5)CC4C3)n2)cn1` (centres unmarked) [Ex. 33, 6-(5-((5-chloro-2-((1-methyl-1H-pyrazol-4-yl)amino)pyrimidin-4-yl)amino)hexahydrocyclopenta[c]pyrrol-2(1H)-yl)nicotinonitrile], in series [2], the “Clearance (CL) after iv dosing” value is 24.8 mL/min/kg, the F was found to be 60.4%, the AUC(0-t) is 702 ng·h/mL and the half-life is 147 min. Moreover, the Vd in series [2] turned out to be 3.33 L/kg. At JAK1 (h), this compound had a 50% inhibitory concentration (IC50) of 0.4 nM. This compound also yielded an IC50 at JAK2 (h) of 3 nM.
As to `CN(c1nc(Nc2cnn(C)c2)ncc1Cl)C1CCC2(CC1)CCN(C(=O)CC#N)CC2` [Ex. 24, 3-(9-((5-chloro-2-((1-methyl-1H-pyrazol-4-yl)amino)pyrimidin-4-yl)(methyl)amino)-3-azaspiro[5.5]undecan-3-yl)-3-oxopropanenitrile], the half-maximal inhibitory concentration (IC50) is 19 nM at JAK1 (h) and 39 nM at JAK2 (h).
On to `Cn1cc(Nc2ncc(Cl)c(NC3CCC4(CCNC4)CC3)n2)cn1` (single isomer, unassigned) [Ex. 13.3A, 5-chloro-N^2-(1-methyl-1H-pyrazol-4-yl)-N^4-(2-azaspiro[4.5]decan-8-yl)pyrimidine-2,4-diamine], for which the values for the IC50 at JAK1 (h) and on JAK2 (h) were 2 nM and 55 nM, respectively.
With `Cn1cnc(Nc2ncc(Cl)c(NC3CCC4(CC3)CCN(C(=O)CC#N)CC4)n2)c1` [Ex. 42, 3-(9-((5-chloro-2-((1-methyl-1H-imidazol-4-yl)amino)pyrimidin-4-yl)amino)-3-azaspiro[5.5]undecan-3-yl)-3-oxopropanenitrile], the half-life at 5 μM amounted to 31.5 min in series [1] (setting [6]) and 48.9 min in series [3] (setting [8]). Further, the CLint scaled at 5 μM in series [1] (setting [7]) is 78.8 mL/min/kg; in series [3] (setting [9]), 35.6 mL/min/kg. Besides, the values for the half-inhibitory concentration (IC50) on JAK1 (h) and on JAK2 (h) were 3 nM and 12 nM, respectively.
Regarding `Cc1cnc(Nc2cnn(C)c2)nc1NC1CCC2(CC1)CCN(C(=O)CC#N)CC2` [Ex. 25, 3-(9-((5-methyl-2-((1-methyl-1H-pyrazol-4-yl)amino)pyrimidin-4-yl)amino)-3-azaspiro[5.5]undecan-3-yl)-3-oxopropanenitrile], the half-life at 5 μM in series [1] (setting [6]) is 16.8 min; in series [3] (setting [8]), 522 min. Further, the CLint scaled at 5 μM is 148 mL/min/kg in series [1] (setting [7]) and 3.33 mL/min/kg in series [3] (setting [9]). For the same compound, the values for the 50% inhibitory concentration (IC50) at JAK1 (h) and on JAK2 (h) were 6 nM and 86 nM, respectively.
